Publication PMC7920280, “The Multi-Targeting Ligand ST-2223 with Histamine H3 Receptor and Dopamine D2/D3 Receptor Antagonist Properties Mitigates Autism-Like Repetitive Behaviors and Brain Oxidative Stress in Mice” (International Journal of Molecular Sciences, 2021)

Key:
BTBR and B6 mice = experiment: Spontaneous alternation behavior (SAB), Y maze; format: in vivo; conditions: i.p., ST-2223 2.5, 5 and 10 mg/kg, MEM 5 mg/kg, ARP 1 mg/kg
Protocol: The drugs tested included ST-2223 [N-(4-(4-(2-methoxyphenyl)piperazin-1-yl)butyl)-6-(3-(piperidin-1-yl)propoxy)-2-naphthamide] that was designed and synthesized in the Institute of Pharmaceutical and Medicinal Chemistry, Heinrich Heine University Düsseldorf, Germany, and in accordance with previously described methodologies (Supplementary Materials). Aripiprazole (ARP) (1 mg/kg, i.p.) and memantine (MEM, 5 mg/kg, i.p.), as reference drugs, were purchased from Sigma-Aldrich (St. Louis, MO, USA). The CNS-penetrant H3R agonist (R)-α-methylhistamine (RAM, 10 mg/kg, i.p.) was purchased from Sigma-Aldrich, St. Louis, MO, USA. T. Protease and the phosphatase inhibitor cocktail were procured from Thermo Scientific, USA. The assay kit for reduced glutathione (GSH) was obtained from Sigma-Aldrich (St. Louis, MO, USA). The lipid peroxidation assay kit for estimation of malondialdehyde (MDA) was purchased from North West Life Science (Vancouver, WA, USA). The assay kits for superoxide dismutase (SOD) and catalase (CAT) were purchased from Cayman Chemical (Ann Arbor, MI, USA). The drugs were prepared daily using 1% dimethyl sulfoxide (DMSO) in 0.9% saline, for intraperitoneal (i.p.) administration at a volume of 10 mL/kg of body weight. Vehicle treatment consisted of 1% DMSO in 0.9% normal saline. All drugs were i.p. administered 30 min before the behavioral test. The doses of these drugs were chosen based on previous reports. Neurobehavioral assessment was performed blindly with respect to experimental group and drug administration.
The SAB test is based on the exploratory strategy of rodents to explore a new environment. In examining repetitive behaviors, the Y maze test took advantage of the rodents’ natural tendency to spontaneously alternate or choose a different arm of the maze instead of the one they visited on their previous entry (i.e., least recently visited arm). A decrease in the percentage alternation can also be attributed to same arm repeated visits. Spontaneous alternation behavior was measured on a Y maze apparatus, as previously described, with slight modifications. The Y maze composed of three arms (30 cm × 6 cm × 15 cm), where the arms were labeled with letters: A, B, or C. The test mouse was placed in the center of the maze and was allowed to freely explore the maze for 8 min. The number of entries into each arm and the total number of entries were recorded by the observer. A spontaneous alternation was defined as successive entry into three arms on an overlapping triplet set. Percentage spontaneous alternation was calculated as the number of spontaneous alternations (actual alternations) over the total number of entries (possible alternations). Two arm entries were subtracted from the denominator because an alternation required at least 3 entries. The apparatus was cleaned with 70% alcohol solution after each mouse was tested. (1) Percentage spontaneous alternations=Total alternations/(Total arm entries − 2) ×100

[1] = parameters: method as in PMID 31647973; conditions: systemic pretreatment; cited from earlier work
VPA mouse model of ASD = test system: VPA mouse model of ASD; parameters: method as in PMID 26074764; conditions: cited from earlier work
hD1Rs = target: T1, hD1Rs (Homo sapiens, UniProt P21728); experiment: [3H]SCH23390 displacement assay, HEK cell membranes; format: binding
T1 construct: expressed in transfected cells
T1 sequence (P21728 whole entry): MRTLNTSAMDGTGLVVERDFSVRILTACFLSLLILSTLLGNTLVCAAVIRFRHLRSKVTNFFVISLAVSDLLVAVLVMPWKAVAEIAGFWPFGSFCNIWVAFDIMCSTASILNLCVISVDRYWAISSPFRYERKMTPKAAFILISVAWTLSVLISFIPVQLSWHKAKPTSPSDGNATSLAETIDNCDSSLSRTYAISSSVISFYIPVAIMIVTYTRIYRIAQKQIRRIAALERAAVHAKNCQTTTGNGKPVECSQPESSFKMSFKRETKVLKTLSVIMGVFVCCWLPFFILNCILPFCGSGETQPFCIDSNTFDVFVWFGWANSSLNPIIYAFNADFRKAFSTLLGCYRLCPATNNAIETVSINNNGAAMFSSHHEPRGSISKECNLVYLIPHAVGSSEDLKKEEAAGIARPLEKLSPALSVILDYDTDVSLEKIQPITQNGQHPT
Protocol: (§1) In accordance with previous experimental protocols, the binding affinity of ST-2223 for H3Rs was assessed by applying the [^3H]N^α-methylhistamine binding assay, performed with cell membrane preparation of HEK cells stably expressing the human H3R (n = 4). In addition, and as previously described, the binding affinity of ST-2223 for human dopamine hD1Rs and hD5Rs (HEK) against [^3H]SCH23390 and hD2SRs, hD3Rs (CHO) using [^3H]spiperone (n = 3) was assessed (n = 3).

hD5Rs = target: T2, hD5Rs (Homo sapiens, UniProt P21918); experiment: as above; format: binding
T2 construct: expressed in transfected cells
T2 sequence (P21918 whole entry): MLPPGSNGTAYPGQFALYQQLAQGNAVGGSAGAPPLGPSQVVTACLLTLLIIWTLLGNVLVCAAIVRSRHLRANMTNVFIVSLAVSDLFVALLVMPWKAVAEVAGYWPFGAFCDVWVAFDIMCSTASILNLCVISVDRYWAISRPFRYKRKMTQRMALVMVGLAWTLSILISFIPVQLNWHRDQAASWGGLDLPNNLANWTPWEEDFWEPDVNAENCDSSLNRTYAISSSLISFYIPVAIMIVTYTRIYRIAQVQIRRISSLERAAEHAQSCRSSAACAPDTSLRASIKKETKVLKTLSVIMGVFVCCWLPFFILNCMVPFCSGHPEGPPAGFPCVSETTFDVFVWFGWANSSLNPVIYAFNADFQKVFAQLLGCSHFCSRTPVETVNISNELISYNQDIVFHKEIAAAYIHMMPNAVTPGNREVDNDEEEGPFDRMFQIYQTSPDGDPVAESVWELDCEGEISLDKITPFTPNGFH
Protocol: as §1

EeAChE = EeAChE (Electrophorus electricus, UniProt O42275); experiment: Acetylcholinesterase inhibition, modified Ellman's method; format: biochemical, electric eel; conditions: 1 μM (1000 nM) of compound; preliminary data
Sequence of EeAChE (O42275 24-633): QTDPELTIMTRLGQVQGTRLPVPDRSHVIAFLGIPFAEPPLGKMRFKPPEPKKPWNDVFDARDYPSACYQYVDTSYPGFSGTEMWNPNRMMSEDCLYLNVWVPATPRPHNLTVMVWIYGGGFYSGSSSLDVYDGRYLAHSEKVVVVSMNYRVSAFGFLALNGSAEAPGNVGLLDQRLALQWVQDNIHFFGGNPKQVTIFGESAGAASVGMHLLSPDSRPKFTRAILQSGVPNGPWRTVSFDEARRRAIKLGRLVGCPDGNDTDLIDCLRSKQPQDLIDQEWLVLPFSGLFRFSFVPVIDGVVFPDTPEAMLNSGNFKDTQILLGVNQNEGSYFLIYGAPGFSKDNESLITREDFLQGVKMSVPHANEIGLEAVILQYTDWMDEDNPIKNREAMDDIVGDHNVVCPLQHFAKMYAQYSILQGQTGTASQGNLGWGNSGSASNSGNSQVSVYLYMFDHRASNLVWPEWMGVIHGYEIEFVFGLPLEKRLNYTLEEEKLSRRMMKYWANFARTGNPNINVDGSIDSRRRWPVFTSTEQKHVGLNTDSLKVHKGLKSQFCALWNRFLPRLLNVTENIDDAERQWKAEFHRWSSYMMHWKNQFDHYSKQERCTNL

hH1R = target: T3, hH1R (Homo sapiens, UniProt P35367); experiment: [3H]pyrilamine binding assay, membranes of CHO cells
T3 construct: expressed in transfected cells
T3 sequence (P35367 whole entry): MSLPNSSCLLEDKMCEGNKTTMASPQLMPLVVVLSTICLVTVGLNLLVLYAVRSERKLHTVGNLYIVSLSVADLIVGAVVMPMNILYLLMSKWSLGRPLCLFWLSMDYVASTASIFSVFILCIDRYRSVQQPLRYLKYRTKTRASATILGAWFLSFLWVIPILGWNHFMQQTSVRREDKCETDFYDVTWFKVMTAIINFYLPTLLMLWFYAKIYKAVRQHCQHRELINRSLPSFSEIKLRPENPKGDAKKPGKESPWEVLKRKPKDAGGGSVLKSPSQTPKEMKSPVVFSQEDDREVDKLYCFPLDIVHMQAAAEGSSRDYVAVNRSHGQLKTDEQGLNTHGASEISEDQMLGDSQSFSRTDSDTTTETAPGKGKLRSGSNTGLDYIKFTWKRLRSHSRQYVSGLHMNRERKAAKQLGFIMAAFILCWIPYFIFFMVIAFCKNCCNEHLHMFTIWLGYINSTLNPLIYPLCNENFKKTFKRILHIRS

EqBuChE = EqBuChE (Equus caballus, UniProt P81908); experiment: Butyrylcholinesterase inhibition, modified Ellman's method; format: biochemical, equine; conditions: 1 μM (1000 nM) of compound; preliminary data, n = 2
Sequence of EqBuChE (P81908 whole entry): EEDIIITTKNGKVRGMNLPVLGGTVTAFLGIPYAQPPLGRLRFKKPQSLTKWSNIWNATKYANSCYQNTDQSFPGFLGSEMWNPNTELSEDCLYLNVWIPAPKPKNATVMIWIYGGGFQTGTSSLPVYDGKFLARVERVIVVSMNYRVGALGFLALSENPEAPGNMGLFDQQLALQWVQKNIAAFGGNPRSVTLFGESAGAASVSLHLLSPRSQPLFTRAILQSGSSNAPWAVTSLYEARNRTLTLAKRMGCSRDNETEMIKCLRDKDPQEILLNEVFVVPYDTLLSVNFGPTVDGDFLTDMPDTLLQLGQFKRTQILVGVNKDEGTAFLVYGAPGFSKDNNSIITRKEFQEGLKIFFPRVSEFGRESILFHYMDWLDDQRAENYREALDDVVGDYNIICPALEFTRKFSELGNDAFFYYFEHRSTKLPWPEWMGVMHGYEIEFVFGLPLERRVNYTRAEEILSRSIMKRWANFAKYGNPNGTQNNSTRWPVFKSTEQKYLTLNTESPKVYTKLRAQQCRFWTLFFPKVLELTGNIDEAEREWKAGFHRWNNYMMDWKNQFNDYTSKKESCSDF

hD3Rs = target: T4, hD3Rs (Homo sapiens, UniProt P35462); experiment: [3H]spiperone displacement assay, CHO cell membranes; format: binding
T4 construct: expressed in transfected cells
T4 sequence (P35462 whole entry): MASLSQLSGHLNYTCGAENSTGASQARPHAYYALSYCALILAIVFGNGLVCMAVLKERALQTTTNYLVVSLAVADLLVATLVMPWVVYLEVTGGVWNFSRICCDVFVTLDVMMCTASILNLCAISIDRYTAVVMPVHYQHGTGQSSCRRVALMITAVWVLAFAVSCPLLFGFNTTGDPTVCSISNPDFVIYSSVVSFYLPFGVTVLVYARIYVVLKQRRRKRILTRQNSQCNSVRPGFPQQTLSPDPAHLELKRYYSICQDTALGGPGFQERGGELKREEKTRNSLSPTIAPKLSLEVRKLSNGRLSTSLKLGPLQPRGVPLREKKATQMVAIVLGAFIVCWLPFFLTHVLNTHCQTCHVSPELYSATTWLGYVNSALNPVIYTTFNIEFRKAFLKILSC
Protocol: as §1

hD2SRs = target: T5, hD2SRs (Homo sapiens, UniProt P14416); experiment: as above; format: binding
T5 construct: expressed in transfected cells
T5 sequence (P14416 1-414 isoform P14416-2): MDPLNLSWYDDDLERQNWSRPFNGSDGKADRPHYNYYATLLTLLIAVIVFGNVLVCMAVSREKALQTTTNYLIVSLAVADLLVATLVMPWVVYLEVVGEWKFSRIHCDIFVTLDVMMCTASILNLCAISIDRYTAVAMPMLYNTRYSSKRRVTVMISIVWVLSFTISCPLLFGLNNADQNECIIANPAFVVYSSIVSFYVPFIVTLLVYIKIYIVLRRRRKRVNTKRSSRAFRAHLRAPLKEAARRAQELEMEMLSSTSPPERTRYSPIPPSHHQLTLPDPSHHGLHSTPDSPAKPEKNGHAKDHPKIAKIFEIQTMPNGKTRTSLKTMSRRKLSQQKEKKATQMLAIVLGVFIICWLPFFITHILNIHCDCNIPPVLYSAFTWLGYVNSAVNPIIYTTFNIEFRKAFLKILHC
Protocol: as §1

human H3R = target: T6, human H3R (Homo sapiens, UniProt Q9Y5N1); experiment: [3H]Nα-methylhistamine binding assay, membranes of HEK cells; conditions: HEK cells stably expressing human H3R, n = 4; read-out: Ki (hH3R)
T6 construct: expressed in transfected cells
T6 sequence (Q9Y5N1 whole entry): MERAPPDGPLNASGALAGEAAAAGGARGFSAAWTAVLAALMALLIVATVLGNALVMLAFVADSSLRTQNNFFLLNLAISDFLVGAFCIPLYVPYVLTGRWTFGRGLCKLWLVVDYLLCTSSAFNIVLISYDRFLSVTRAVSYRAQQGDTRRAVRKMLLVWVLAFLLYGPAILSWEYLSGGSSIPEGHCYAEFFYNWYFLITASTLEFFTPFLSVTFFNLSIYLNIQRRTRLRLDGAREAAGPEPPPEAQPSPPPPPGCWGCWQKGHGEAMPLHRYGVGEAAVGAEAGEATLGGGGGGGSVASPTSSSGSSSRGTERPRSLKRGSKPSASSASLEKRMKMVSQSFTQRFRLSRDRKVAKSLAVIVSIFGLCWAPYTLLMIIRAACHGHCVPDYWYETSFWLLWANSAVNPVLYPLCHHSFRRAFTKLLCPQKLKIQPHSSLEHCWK
Protocol: as §1

| Structure (SMILES) | percentage of spontaneous alternation vs vehicle-treated B6 mice (BTBR and B6 mice) | percentage of spontaneous alternation vs vehicle-treated BTBR mice (BTBR and B6 mice) | enhanced frequency of self-grooming induced by neuromedin U [1] | social deficits and repetitive behaviors (self-grooming, jumping) (VPA mouse model of ASD) | Ki (hD1Rs) [nM] | Ki (hD5Rs) [nM] | inhibition at 1 µM (EeAChE) [%] | Ki (hH1R) [nM] | inhibition at 1 µM (EqBuChE) [%] | Ki (hD3Rs) [nM] | hD2R/hD3R ratio of Ki values (hD3Rs; preference for hD3R) | Ki (hD2SRs) [nM] | Ki (human H3R) [nM] |
| --- | --- | --- | --- | --- | --- | --- | --- | --- | --- | --- | --- | --- | --- |
| O=C1CCc2ccc(OCCCCN3CCN(c4cccc(Cl)c4Cl)CC3)cc2N1 [ARP, aripiprazole] | did not alter | failed to significantly mitigate | attenuation | – | – | – | – | – | – | – | – | – | – |
| CC12CC3CC(C)(C1)CC(N)(C3)C2 [MEM, memantine] | did not alter | significantly increased | – | rescued | – | – | – | – | – | – | – | – | – |
| COc1ccccc1N1CCN(CCCCNC(=O)c2ccc3cc(OCCCN4CCCCC4)ccc3c2)CC1 [ST-2223, N-(4-(4-(2-methoxyphenyl)piperazin-1-yl)butyl)-6-(3-(piperidin-1-yl)propoxy)-2-naphthamide] | did not alter | significantly increased | – | – | 564 | 5060 | < 60 | 85.2 | < 30 | 2 | 10 | 19.8 | 4.8 |
